Reference: ChEMBL document CHEMBL3865816, “Design, synthesis and biological evaluation of novel azaspiro analogs of linezolid as antibacterial and antitubercular agents” (Eur J Med Chem, 2016)
In brackets after ≈: the same amount, converted by molar mass.

Tests used:
Format in all cases: functional
Bacillus subtilis [1] = experiment: Antibacterial activity against Bacillus subtilis NCIM 2010 at 30 ug/ml measured after 12 hrs by spectrophotometric method; settings: NCIM 2010, 12 h
[2] = tested on: Mycobacterium tuberculosis; experiment: Antitubercular activity against active stage Mycobacterium tuberculosis H37Ra measured after 8 days by XTT assay; settings: 192 h
Staphylococcus aureus [3] = experiment: Antibacterial activity against Staphylococcus aureus NCIM 2079 at 3 ug/ml measured after 12 hrs by spectrophotometric method; settings: NCIM 2079, 12 h
Pseudomonas aeruginosa [4] = experiment: Antibacterial activity against Pseudomonas aeruginosa NCIM 2036 measured after 8 hrs by spectrophotometric method; settings: NCIM 2036, 8 h
Bacillus subtilis [5] = experiment: Antibacterial activity against Bacillus subtilis NCIM 2010 measured after 12 hrs by spectrophotometric method; settings: NCIM 2010, 12 h
Escherichia coli [6] = experiment: Antibacterial activity against Escherichia coli NCIM 2688 at 10 ug/ml measured after 8 hrs by spectrophotometric method; settings: NCIM 2688, 8 h
Staphylococcus aureus [7] = experiment: Antibacterial activity against Staphylococcus aureus NCIM 2079 measured after 12 hrs by spectrophotometric method; settings: NCIM 2079, 12 h
Pseudomonas aeruginosa [8] = experiment: Antibacterial activity against Pseudomonas aeruginosa NCIM 2036 at 30 ug/ml measured after 8 hrs by spectrophotometric method; settings: NCIM 2036, 8 h
[9] = tested on: Mycobacterium tuberculosis; experiment: Antitubercular activity against dormant stage Mycobacterium tuberculosis H37Ra at 10 ug/ml measured after 12 days by XTT assay; settings: 288 h
Bacillus subtilis [10] = experiment: Antibacterial activity against Bacillus subtilis NCIM 2010 at 10 ug/ml measured after 12 hrs by spectrophotometric method; settings: NCIM 2010, 12 h
Escherichia coli [11] = experiment: Antibacterial activity against Escherichia coli NCIM 2688 measured after 8 hrs by spectrophotometric method; settings: NCIM 2688, 8 h
[12] = tested on: Mycobacterium tuberculosis; experiment: Antitubercular activity against dormant stage Mycobacterium tuberculosis H37Ra measured after 12 days by XTT assay; settings: 288 h
Pseudomonas aeruginosa [13] = experiment: Antibacterial activity against Pseudomonas aeruginosa NCIM 2036 at 10 ug/ml measured after 8 hrs by spectrophotometric method; settings: NCIM 2036, 8 h
[14] = tested on: Mycobacterium tuberculosis; experiment: Antitubercular activity against dormant stage Mycobacterium tuberculosis H37Ra at 3 ug/ml measured after 12 days by XTT assay; settings: 288 h
Staphylococcus aureus [15] = experiment: Antibacterial activity against Staphylococcus aureus NCIM 2079 at 10 ug/ml measured after 12 hrs by spectrophotometric method; settings: NCIM 2079, 12 h
Pseudomonas aeruginosa [16] = experiment: Antibacterial activity against Pseudomonas aeruginosa NCIM 2036 at 3 ug/ml measured after 8 hrs by spectrophotometric method; settings: NCIM 2036, 8 h
Escherichia coli [17] = experiment: Antibacterial activity against Escherichia coli NCIM 2688 at 30 ug/ml measured after 8 hrs by spectrophotometric method; settings: NCIM 2688, 8 h
Escherichia coli [18] = experiment: Antibacterial activity against Escherichia coli NCIM 2688 at 3 ug/ml measured after 8 hrs by spectrophotometric method; settings: NCIM 2688, 8 h
[19] = tested on: Mycobacterium tuberculosis; experiment: Antitubercular activity against dormant stage Mycobacterium tuberculosis H37Ra at 30 ug/ml measured after 12 days by XTT assay; settings: 288 h
Staphylococcus aureus [20] = experiment: Antibacterial activity against Staphylococcus aureus NCIM 2079 at 30 ug/ml measured after 12 hrs by spectrophotometric method; settings: NCIM 2079, 12 h
Bacillus subtilis [21] = experiment: Antibacterial activity against Bacillus subtilis NCIM 2010 at 3 ug/ml measured after 12 hrs by spectrophotometric method; settings: NCIM 2010, 12 h

| Structure (SMILES) | inhibition at 30 µg/mL (Bacillus subtilis [1]) [%] | inhibition at 3 µg/mL (Staphylococcus aureus [3]) [%] | IC50 (Pseudomonas aeruginosa [4]) [µg/mL] | MIC (Pseudomonas aeruginosa [4]) [µg/mL] | IC50 (Bacillus subtilis [5]) [µg/mL] | MIC (Bacillus subtilis [5]) [µg/mL] | inhibition at 10 µg/mL (Escherichia coli [6]) [%] | IC50 (Staphylococcus aureus [7]) [µg/mL] | MIC (Staphylococcus aureus [7]) [µg/mL] | inhibition at 30 µg/mL (Pseudomonas aeruginosa [8]) [%] | inhibition at 10 µg/mL [9] [%] | inhibition at 10 µg/mL (Bacillus subtilis [10]) [%] | IC50 (Escherichia coli [11]) [µg/mL] | MIC (Escherichia coli [11]) [µg/mL] | IC50 [12] [µg/mL] | MIC [12] [µg/mL] | inhibition at 10 µg/mL (Pseudomonas aeruginosa [13]) [%] | inhibition at 3 µg/mL [14] [%] | inhibition at 10 µg/mL (Staphylococcus aureus [15]) [%] | inhibition at 3 µg/mL (Pseudomonas aeruginosa [16]) [%] | also measured |
| --- | --- | --- | --- | --- | --- | --- | --- | --- | --- | --- | --- | --- | --- | --- | --- | --- | --- | --- | --- | --- | --- |
| NC[C@H]1CN(c2ccc(N3CC4(COC4)C3)c(F)c2)C(=O)O1 | 48.8 | 86.5 | > 100 | > 100 | > 100 | > 100 | 96.8 | 0.84 to 0.843 (≈ 2.73 to 2.74 µM) | 3.38 (≈ 11 µM) | 56.9 | 75.2 | 43.3 | 0.57 (≈ 1.85 µM) | 4.05 (≈ 13.2 µM) | 3.46 (≈ 11.3 µM) | 11.3 (≈ 36.9 µM) | 53.7 | 15.2 | 94.3 | 49.2 | IC50 [2]: 2.8 µg/mL (≈ 9.11 µM); MIC [2]: 18.3 µg/mL (≈ 59.4 µM); inhibition at 30 µg/mL (Escherichia coli [17]): 99.2%; inhibition at 3 µg/mL (Escherichia coli [18]): 88%; inhibition at 30 µg/mL [19]: 90.9%; inhibition at 30 µg/mL (Staphylococcus aureus [20]): 98.9%; inhibition at 3 µg/mL (Bacillus subtilis [21]): 36.4% |
| CC(=O)NC[C@H]1CN(c2ccc(N3CC4(COC4)C3)c(F)c2)C(=O)O1 | 100 | 90.4 | 0.58 (≈ 1.66 µM) | 6.4 (≈ 18.3 µM) | 0.65 (≈ 1.86 µM) | 3.46 (≈ 9.9 µM) | 17.4 | 0.53 (≈ 1.52 µM) | 2.9 (≈ 8.3 µM) | 98.5 | 94.7 | 95.4 | > 100 | > 100 | 2.07 (≈ 5.93 µM) | 3.1 (≈ 8.87 µM) | 91.9 | 15.1 | 91.8 | 85.5 | IC50 [2]: 1.56 µg/mL (≈ 4.47 µM); MIC [2]: 2.55 µg/mL (≈ 7.3 µM); inhibition at 30 µg/mL (Escherichia coli [17]): 28.8%; inhibition at 3 µg/mL (Escherichia coli [18]): 3.06%; inhibition at 30 µg/mL [19]: 95.2%; inhibition at 30 µg/mL (Staphylococcus aureus [20]): 99.5%; inhibition at 3 µg/mL (Bacillus subtilis [21]): 88.8% |
| CC(=O)NC[C@H]1CN(c2ccc(C3=C[C@H]4CC[C@@H](C3)N4C(=O)OC(C)(C)C)c(F)c2)C(=O)O1 | 99.1 | 90.5 | 0.67 (≈ 1.46 µM) | 15.1 (≈ 32.8 µM) | 0.55 (≈ 1.2 µM) | 5.67 (≈ 12.3 µM) | 94.4 | 0.74 (≈ 1.61 µM) | 2.95 (≈ 6.42 µM) | 93.9 | 79.6 | 97.3 | 0.57 (≈ 1.24 µM) | 3.66 (≈ 7.96 µM) | 10.8 (≈ 23.6 µM) | 20.5 (≈ 44.6 µM) | 88.3 | 34.8 | 97.9 | 83.8 | IC50 [2]: 12.3 µg/mL (≈ 26.8 µM); MIC [2]: 21.4 µg/mL (≈ 46.6 µM); inhibition at 30 µg/mL (Escherichia coli [17]): 98.7%; inhibition at 3 µg/mL (Escherichia coli [18]): 89.2%; inhibition at 30 µg/mL [19]: 94.2%; inhibition at 30 µg/mL (Staphylococcus aureus [20]): 99.1%; inhibition at 3 µg/mL (Bacillus subtilis [21]): 85.7% |
| O=C(NC[C@H]1CN(c2ccc(N3CC4(COC4)C3)c(F)c2)C(=O)O1)c1ccno1 | 100 | 95.1 | 0.51 (≈ 1.27 µM) | 2.57 (≈ 6.39 µM) | 0.49 (≈ 1.22 µM) | 2.35 (≈ 5.84 µM) | 93.3 | 0.88 (≈ 2.19 µM) | 2.05 (≈ 5.09 µM) | 98.9 | 18.2 | 97.3 | 0.71 to 0.72 (≈ 1.76 to 1.79 µM) | 4.56 to 4.6 (≈ 11.3 to 11.4 µM) | 9.58 (≈ 23.8 µM) | 21.2 (≈ 52.8 µM) | 94.9 | 4.35 | 98.2 | 90.8 | IC50 [2]: 6.4 µg/mL (≈ 15.9 µM); MIC [2]: 10.9 µg/mL (≈ 27.1 µM); inhibition at 30 µg/mL (Escherichia coli [17]): 99.9%; inhibition at 3 µg/mL (Escherichia coli [18]): 88.3%; inhibition at 30 µg/mL [19]: 95.4%; inhibition at 30 µg/mL (Staphylococcus aureus [20]): 98.5%; inhibition at 3 µg/mL (Bacillus subtilis [21]): 90.5% |
| CC(=O)NC[C@H]1CN(c2ccc(N3CCOCC3)c(F)c2)C(=O)O1 [LINEZOLID] | 99.8 | 99.5 | 0.49 (≈ 1.45 µM) | 1.31 (≈ 3.88 µM) | 0.64 (≈ 1.9 µM) | 1.8 (≈ 5.34 µM) | 99.8 | 0.42 (≈ 1.24 µM) | 1.13 (≈ 3.35 µM) | 99.9 | 96.6 | 99.4 | 0.49 (≈ 1.45 µM) | 1.15 (≈ 3.41 µM) | 0.71 (≈ 2.1 µM) | 1.25 (≈ 3.71 µM) | 99 | 84 | 99.5 | 99.2 | IC50 [2]: 0.8 µg/mL (≈ 2.37 µM); MIC [2]: 1.31 µg/mL (≈ 3.88 µM); inhibition at 30 µg/mL (Escherichia coli [17]): 100%; inhibition at 3 µg/mL (Escherichia coli [18]): 99.3%; inhibition at 30 µg/mL [19]: 95.5%; inhibition at 30 µg/mL (Staphylococcus aureus [20]): 99.1%; inhibition at 3 µg/mL (Bacillus subtilis [21]): 98.9% |
| O=C1O[C@@H](CNC(=S)Nc2ccccc2F)CN1c1ccc(N2CC3(COC3)C2)c(F)c1 | 101 | 85.9 | 0.98 (≈ 2.13 µM) | 15.9 (≈ 34.5 µM) | 1.31 (≈ 2.84 µM) | 5.18 (≈ 11.2 µM) | 42.8 | 0.6 (≈ 1.3 µM) | 5.76 (≈ 12.5 µM) | 96 | 57.4 | 96.6 | > 100 | > 100 | 22.8 (≈ 49.6 µM) | 41.6 (≈ 90.4 µM) | 87.4 | 25.1 | 95.7 | 77.8 | IC50 [2]: 16.3 µg/mL (≈ 35.5 µM); MIC [2]: 41.1 µg/mL (≈ 89.3 µM); inhibition at 30 µg/mL (Escherichia coli [17]): 51.9%; inhibition at 3 µg/mL (Escherichia coli [18]): 25%; inhibition at 30 µg/mL [19]: 87.6%; inhibition at 30 µg/mL (Staphylococcus aureus [20]): 99.3%; inhibition at 3 µg/mL (Bacillus subtilis [21]): 81% |
| O=C1O[C@@H](CNS(=O)(=O)c2cc([N+](=O)[O-])ccc2Cl)CN1c1ccc(N2CC3(COC3)C2)c(F)c1 | 88.4 | 42 | > 100 | > 100 | > 100 | > 100 | 15.8 | > 100 | > 100 | 68.6 | 29.2 | 62.1 | > 100 | > 100 | > 100 | > 100 | 38.6 | 24.4 | 55 | -6.17 | inhibition at 30 µg/mL (Escherichia coli [17]): 49.6%; inhibition at 3 µg/mL (Escherichia coli [18]): 2.37%; inhibition at 30 µg/mL [19]: 59.6%; inhibition at 30 µg/mL (Staphylococcus aureus [20]): 89.5%; inhibition at 3 µg/mL (Bacillus subtilis [21]): 47% |
